# Experimental data from PMC8882908, “Tricyclic Antidepressant Structure-Related Alterations in Calcium-Dependent Inhibition and Open-Channel Block of NMDA Receptors” (Frontiers in Pharmacology, 2022).
# Where “and” joins values, the source holds several entries; their conditions need not be identical. Equal values may be shown once. Read-outs that look alike come from different tables or passages of the source.
# Columns and labels:
# [1] = system: N-methyl-D-aspartate receptors (NMDARs); experiment: Kinetics of NMDAR open-channel block and trapping block (block/unblock relaxations, AP5 washout protocol); assay type: cell-based, rat
# Description: Experiments were performed at 22–25°C.
# NMDAR current relaxations during block or unblock by TCA were fit with the single exponential equation: I =(Imax-Imin)·exp (-t/τ)+Imin (2) where Imax and Imin are maximal and minimal amplitudes of currents during relaxations and τ represents the time constant of the exponential component during block onset (τon) or offset (unblock, τoff). From these measurements, the rate constants of block (k^+) and unblock (k^−) was estimated. k^+ was obtained from τon measured at 20 and 90 μM DES (C1 and C2 respectively) using the equation: k^+=(1 /τonC2-1/τonC1)/(C2 - C1) (3)
# The k^− was the reciprocal to measured τoff: k^-=1 /τoff (4)
# The equilibrium dissociation constant (Kd) for DES was calculated as follows: Kd=k^-/ k^+ (5)
# The rise time of currents activated by the testing NMDA + Gly application in trapping channel block experiments was fitted in ClampFit (pClamp, Axon Instruments) using the double exponential function: I=I1·exp(-t/τ1)+I2·exp(-t/τ2)- C (7) where I1 and I2 are amplitudes of the exponential and τ1 and τ2 are time constants of the exponential and C equals I1 + I2 + Ib.
# To study the kinetics of open-channel block of NMDARs by DES, we performed experiments at a single Vm = −70 mV using a Ca^2+-free bathing solution to avoid the influence of the Ca^2+-dependent process. DES was applied at a steady state of NMDAR currents at high (90 μM) or low (20 μM) concentrations (Figure 4A). DES-induced block corresponds well to basic predictions of an open-channel block. The block onset (τon) and offset (τoff) were well fit by a single exponential function (Eq. 2). […] The rate constants of block and unblock calculated on the basis of Eqs 3, 4 were k^+ = 0.008 ± 0.002 s^−1 μM^−1; k^− = 0.039 ± 0.005 s^−1, correspondently.
# The absence in records of “tail currents” upon the simultaneous removal of agonists and a blocker may speak in favor of trapping of the blocking molecule inside of the pore ([Costa and Albuquerque 1994]; [Vorobjev and Sharonova 1994]; [Benveniste and Mayer 1995]; [Sobolevsky et al., 1999]). We, therefore, further tested the possibility of trapping of DES in the pore of NMDARs by the channel closure. A series of experiments were carried out following the protocol used previously for ATL ([Stepanenko et al., 2019]). After reaching an equilibrium of NMDA-mediated currents, 90 μM DES was applied to the cell for 10 s until the development of a stable block with a small amount of residual current (Ib) (Figure 4C). […] Single exponential approximation of the data at Figure 4E (dashed line) elicits the time constant of 7.7 ± 1.8 s for DES escape from trapping, representing the quantitative characteristic of DES partial trapping block.
# [2] = system: N-methyl-D-aspartate receptors (NMDARs); conditions: for δ, fraction of the membrane electric field to the binding site: Woodhull model, from the outside
# Description: All procedures on animals were performed in accordance with the guide of the Federation for Laboratory Animal Science Associations (FELASA) and were approved by the Animal Care and Use Committees of Sechenov Institute. Briefly, 17 days pregnant Wistar rats (supplied by the Sechenov Institute Animal Facility) were sacrificed by 1 min CO2 inhalation in a plastic box connected to a CO2 tank. Fetuses were removed, and then primary cultures of rat cortical neurons were prepared using conventional procedures as described earlier ([Antonov and Johnson 1996]; [Mironova et al., 2007]). Neurons were grown in Neurobasal culture medium supplemented with B-27 (Gibco-Invitrogen, United Kingdom) on 7 mm glass coverslips coated with poly-D-lysine and were used for experiments after 10–14 days in culture ([Mironova et al., 2007]; [Han and Stevens 2009]).
# Whole-cell currents were recorded from cultured rat cortical neurons using a MultiClamp 700B patch-clamp amplifier. Recordings were low-pass filtered at 400 Hz and digitized at the acquisition rate of 20,000 samples per second by Digidata 1440A controlled by pClamp v10.6 software (Molecular Devices). Solution exchange was performed by means of a fast solution application system as described earlier ([Sibarov et al., 2015]). Unless otherwise specified, the external bathing solution contained (in mM): 144 NaCl; 2.8 KCl; 1.0 CaCl2; 10 HEPES, at pH 7.2–7.4, osmolarity 310 mOsm. The intrapipette solution contained (in mM): 120 CsF, 10 CsCl, 10 EGTA, and 10 HEPES, osmolarity 300 mOsm, with pH adjusted to 7.4 with CsOH. Patch pipettes of 4–6 MΩ were pulled from Sutter BF150-89-10 borosilicate capillaries. Experiments were performed at 22–25°C. Under control conditions, neurons were voltage clamped at −70 mV. Data are reported without corrections for liquid junction potential, which was measured as −11 mV. To activate NMDARs, 100 µM NMDA was always co-applied with 10 µM glycine as co-agonist. Some experiments were performed on neurons loaded with BAPTA. To load BAPTA, cortical neuron cultures were incubated in a bathing solution containing 5 µM BAPTA-AM for 1 h.
# To determine the blocking potency of TCAs, NMDA elicited currents were measured in the absence and presence of different TCA concentrations ([B]). Amplitudes of currents measured in the presence of blocker (Ib) were normalized to maximal current response in control (Ic). The IC50 is the concentration of TCA that cause 50% of the maximal inhibition of currents, and the Hill coefficient (h) were estimated by fitting concentration-inhibition curves with the Hill equation: Ib/Ιc=1/(1+[Β]^h/ΙC50h) (1)
# To obtain the voltage-dependence of NMDAR block by TCAs, the concentration-ihibition curves were generated at three membrane holding potentials Vm = −100, −70, and −30 mV. The obtained values were fitted with the modified by incorporating the dependence of NMDAR inhibition on [Ca^2+] ([Stepanenko et al., 2019]) Woodhull equation: IC50(Vm[Ca^2+])=IC50(0 mV)·exp(VmzδF/RT)·exp(-[Ca^2+]/X) (6) where IC50 (0 mV) and δ were set as free parameters. […] For Faraday constant, gas constant, and room temperature of 28°C, the RT/F ≈ 26 mV. RT/(zδF) is equal to Vm, producing an e-fold change of IC50, and X is equal to [Ca^2+], producing an e-fold change of IC50.
# [3] = target: N-methyl-D-aspartate receptors (NMDARs); conditions: read-out: model-predicted IC50; [Ca2+] = 2.5 mM, Vm = −70 mV
# Description: To obtain the voltage-dependence of NMDAR block by TCAs, the concentration-ihibition curves were generated at three membrane holding potentials Vm = −100, −70, and −30 mV. The obtained values were fitted with the modified by incorporating the dependence of NMDAR inhibition on [Ca^2+] ([Stepanenko et al., 2019]) Woodhull equation: IC50(Vm[Ca^2+])=IC50(0 mV)·exp(VmzδF/RT)·exp(-[Ca^2+]/X) (6) where IC50 (0 mV) and δ were set as free parameters. IC50 (0 mV) is the value of IC50 at Vm = 0 mV, δ is the fraction of the membrane voltage field exerting force on TCA at its binding site. z = 1 is a molecule electric charge for both DES and CLO. For Faraday constant, gas constant, and room temperature of 28°C, the RT/F ≈ 26 mV. RT/(zδF) is equal to Vm, producing an e-fold change of IC50, and X is equal to [Ca^2+], producing an e-fold change of IC50.
# The model is described by Eq. 6 IC50 (Vm, [Ca^2+]) = IC50 (0 mV) • exp (Vm/(e-fold change Vm)) • exp (- [Ca^2+]/(e-fold change [Ca^2+])). The dependences of TCA IC50s on [Ca^2+] […]
# FIGURE 7 Predicted IC50 values for NMDAR inhibition by tricyclic antidepressants as a function of membrane voltage (Vm) and external [Ca^2+]. […] The IC50s were calculated as IC50(Vm, [Ca^2+]) = IC50(0 mV) · exp (Vm/Y) ·exp(-[Ca^2+]/X), where X is equal to the [Ca^2+] value required for an e-fold change of IC50, and Y is equal to the Vm value required for an e-fold change of IC50.
# NMDARs = conditions: cited from earlier work
# NMDAR channels = system: NMDAR channels; parameters: method as in Reynolds and Miller 1988; conditions: ref Reynolds and Miller 1988; cited from earlier work
# [4] = parameters: method as in Stern et al., 1980; McTavish and Benfield 1990; conditions: ref Stern et al., 1980; McTavish and Benfield 1990; cited from earlier work
compound,measurement,setting,value
"CNCCCN1c2ccccc2CCc2ccccc21 [DES, desipramine]",fold lesser rate of dissociation from channels than ATL,[1],about 5 folds
same,rate constant of unblock k−,"[1]; Vm = −70 mV, Ca2+-free solution, 1/τoff",0.039 ± 0.005 s⁻¹
same,rate constant of block k+,"[1]; Vm = −70 mV, Ca2+-free solution, from τon at 20 and 90 μM",8000 ± 2000 M⁻¹ s⁻¹
same,Kd,"[1]; Vm = −70 mV, Ca2+-free solution, read-out: equilibrium dissociation constant Kd = k−/k+",4.7 ± 1.9 µM
same,fold drop of IC50 on increasing extracellular [Ca2+] from 0 to 1 mM,[2],5 fold
same,fold smaller Vm shift for an e-fold change of IC50 than ATL or CLO,[2],~1.5 folds
same,"δ, fraction of the membrane electric field to the binding site",[2],0.71
same,open-channel block potency relative to ATL,[2]; based on IC50 (0 mV),about 5 folds
same,e-fold change Vm (Vm shift giving an e-fold change of IC50),[2]; fit with Eq. 6,37 ± 3.4 mV and 37 mV and 36.9 ± 3.4 mV
same,e-fold change [Ca2+] ([Ca2+] shift giving an e-fold change of IC50),"[2]; fit with Eq. 6, Vm = −70 mV",590 µM and 590 ± 70 µM
same,IC50,"[2]; read-out: IC50(0 mV), value of IC50 at Vm = 0 mV from fit with Eq. 6 (Woodhull)",60 ± 5.7 µM
same,IC50,"[2]; read-out: IC50 of the inhibition of NMDAR currents, Vm = −30 mV, [Ca2+] = 0",27 µM
same,IC50,"[2]; read-out: IC50 of the inhibition of NMDAR currents, Vm = −30 mV, [Ca2+] = 1 mM",4.85 µM
same,IC50,"[2]; read-out: IC50 of the inhibition of NMDAR currents, Vm = −70 mV, [Ca2+] = 0",8.3 µM
same,IC50,"[2]; read-out: IC50 of the inhibition of NMDAR currents, Vm = −70 mV, [Ca2+] = 1 mM",1.75 µM
same,IC50,"[2]; read-out: IC50 of the inhibition of NMDAR currents, Vm = −70 mV, [Ca2+] = 4 mM",1.8 µM and 1.81 µM
same,IC50,"[2]; read-out: IC50 of the inhibition of NMDAR currents, Vm = −100 mV, [Ca2+] = 1 mM",0.89 µM
same,fold IC50 decrease with Vm shift from −30 to −100 mV,[2]; regardless of extracellular calcium,5.4 fold
same,IC50,[3],0.13 µM
same,e-fold change Vm,"NMDARs; 5 μM NMDA, physiological extracellular Ca2+, ref Sernagor et al., 1989",36 mV
same,IC50,"NMDARs; 5 μM NMDA, physiological extracellular Ca2+, ref Sernagor et al., 1989, read-out: IC50",9.8 µM
same,IC50,"NMDARs; Vm = −70 mV, extracellular Ca2+ present, 100 μM NMDA, ref Barygin et al., 2017, read-out: IC50",1.4 µM
same,IC50,"NMDARs; Vm = −70 mV, extracellular Ca2+ present, 100 μM NMDA, ref Nothdurfter et al., 2013, read-out: IC50",2.7 µM
same,IC50,"NMDARs; varying experimental conditions, ref Reynolds and Miller 1988, Sernagor et al., 1989, Nothdurfter et al., 2013, Barygin et al., 2017, read-out: IC50 values reported for NMDAR inhibition",1.4 to 9.8 µM
same,concentration displacing MK-801 from the NMDAR channels,NMDAR channels,7.41 µM
"CN(C)CCCN1c2ccccc2CCc2ccc(Cl)cc21 [CLO, clomipramine]","δ, fraction of the membrane electric field to the binding site",[2],0.51
same,therapeutic blood concentrations,[4],0.3 to 1 µM
"CN(C)CCC=C1c2ccccc2CCc2ccccc21 [ATL, amitriptyline]",IC50,[3],1.6 µM
same,e-fold change Vm,"NMDARs; ref Stepanenko et al., 2019",54 mV
same,e-fold change [Ca2+],"NMDARs; ref Stepanenko et al., 2019",0.63 mM
same,time constant of escape from trapping block,"NMDARs; ref Stepanenko et al., 2019",about 1.2 s
same,"δ, fraction of the membrane electric field","NMDARs; ref Stepanenko et al., 2019",0.51
same,IC50,"NMDARs; ref Stepanenko et al., 2019, read-out: IC50(0 mV)",321 µM
